One assay has as its target T1, human STING (hSTING) (Homo sapiens, UniProt Q86WV6).
T1 construct: host or cells: HEK-Blue ISG cells (HEK293-derived SEAP reporter line)
The experiment in a line: Inhibition test of intracellular human STING (hSTING) pathway using SEAP reporter cells (HEK-Blue ISG), stimulation with Compound 3. Type of assay: cell-based. Set-up: hSTING inhibitory activity: scale not given here. The note with it: Compound 3 10 nM stimulation, 21 hours. Summed up:
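IC50 derived by regressing inhibition rate against log compound concentration (0.1 to 10 μM final, added 1 h before agonist), with 0% and 100% set by wells without and with 10 nM Compound 3. SEAP colour reaction read after 21 h stimulation of HEK-Blue ISG reporter cells.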

Assay [1] concerns STING activation (IFN-β production in THP-1 cells). As to the kind of experiment: Human IFN-β production inhibition test by cGAMP stimulation in THP-1 cells. The format is cell-based. Further details: IFN-β bioinhibitory activity: scale not given here. Conditions: 2'3'-cGAMP transfection, 18 hours, IFN-β ELISA; for pIC50: Homo sapiens, read-out: IFN-β bioinhibitory activity. As for the experimental part:
Human IFN-β production inhibition test by cGAMP stimulation
The inhibitory activity of test compounds against STING activation was evaluated by measuring the amount of IFN-β produced when human monocytic cell line THP-1 cells were stimulated with the endogenous ligand cGAMP.
After seeding THP-1 cells (ATCC) in a 96-well plate, PMA (Santa Cruz Biotechnology) adjusted to a concentration of 100 nM after addition was added, and incubated at 37° C. in a 5% CO2 incubator. It was cultured overnight (RPMI1640 medium containing 10% FBS, 50 U/mL penicillin/50 μg/mL streptomycin). A test compound solution adjusted to a final concentration of 0.001 to 1 μM was added to each well of this plate and cultured for 1 hour in a CO2 incubator (DMSO final concentration 0.1%). 0.12 μg/well of 2′3′-cGAMP (Invivogen, #tlrl-nacga23) was introduced into the cells by transfection using Lipofectamine2000 (Invitrogen) and cultured in a CO incubator for an additional 18 hours. After collecting the culture supernatant from each well, the amount of human IFN-β produced in the culture supernatant was measured by ELISA using R&D human IFN-β Duoset (R&D Systems).
Assuming that the human IFN-β production amount of the test compound-free and cGAMP-added group is 100%, and the human IFN-β production amount of the test compound-free and cGAMP-free group is 0%, the IC50 value was determined by regression analysis of the inhibitory rate determined from the amount of human IFN-β production at each compound concentration and the concentration of the test compound (logarithm).
(An ELISA detects its analyte on a solid surface through an enzyme-linked reagent.)

pIC50: −log10 of the molar value. Where a name gives a salt, the structure may show the parent alone.

T1 sequence (Q86WV6 whole entry H232R): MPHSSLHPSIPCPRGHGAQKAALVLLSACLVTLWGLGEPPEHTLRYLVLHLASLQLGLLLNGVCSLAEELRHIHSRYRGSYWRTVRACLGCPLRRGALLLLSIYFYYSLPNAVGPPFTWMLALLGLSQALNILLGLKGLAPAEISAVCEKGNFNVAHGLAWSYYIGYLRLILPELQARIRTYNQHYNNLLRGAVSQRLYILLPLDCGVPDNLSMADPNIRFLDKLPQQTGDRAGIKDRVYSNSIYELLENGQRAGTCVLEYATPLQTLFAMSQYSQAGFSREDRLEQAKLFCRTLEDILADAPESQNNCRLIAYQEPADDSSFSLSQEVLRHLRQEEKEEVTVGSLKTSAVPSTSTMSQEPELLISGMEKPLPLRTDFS

With `Cn1c(Nc2c[nH]c3ccc(Cl)nc23)nc2cc(Oc3ccccc3)ccc21` [Embodiment 45, N-(5-Chloro-1H-pyrrolo[3,2-b]pyridin-3-yl)-1-methyl-5-phenoxy-1H-benzo[d]imidazol-2-amine], the hSTING inhibitory activity result on human STING (hSTING) is “* *”. Further, the pIC50 in assay [1] was 6.00 to 7.00.
As to `Cn1c(Nc2c[nH]c3ccc(Cl)nc23)nc2cc(C(F)(F)F)ccc21` [Embodiment 47, N-(5-Chloro-1H-pyrrolo[3,2-b]pyridin-3-yl)-1-methyl-5-(trifluoromethyl)-1H-benzo[d] imidazol-2-amine], at human STING (hSTING), the hSTING inhibitory activity entry is reported as “* *”. The IFN-β bioinhibitory activity entry in assay [1] was “* *”.
With `Cc1ccnc2c(Nc3nc4cc(Oc5ccccc5)ccc4[nH]3)c[nH]c12` [Embodiment 52, N-(7-methyl-1H-pyrrolo[3,2-b]pyridin-3-yl)-5-phenoxy-1H-benzo[d]imidazol-2-amine], at human STING (hSTING), the hSTING inhibitory activity result was “* *”. In assay [1], the pIC50 was 6.00 to 7.00.
In the same order, the values of `Cc1ccc2[nH]cc(Nc3nc4cc(Oc5ccccc5)ccc4[nH]3)c2n1` [Embodiment 53, N-(5-methyl-1H-pyrrolo[3,2-b]pyridin-3-yl)-5-phenoxy-1H-benzo[d]imidazol-2-amine] are “* *” and no more than 6.00.
On to `c1ccc(Oc2ccc3[nH]c(Nc4c[nH]c5c(-c6ccccc6)ccnc45)nc3c2)cc1` [Embodiment 54, 5-phenoxy-N-(7-phenyl-1H-pyrrolo[3,2-b]pyridin-3-yl)-1H-benzo[d]imidazol-2-amine], for which the hSTING inhibitory activity entry at human STING (hSTING) is “* *”. Further, in assay [1], the pIC50 is no more than 6.00.
Take `Cn1c(Nc2c[nH]c3ccc(Cl)cc23)nc2cc(C(F)(F)F)ccc21` [Embodiment 56, N-(5-chloro-1H-indol-3-yl)-1-methyl-5-(trifluoromethyl)-1H-benzo[d]imidazol-2-amine]: the hSTING inhibitory activity entry on human STING (hSTING) is listed as “* * *”. In addition, the IFN-β bioinhibitory activity result in assay [1] is recorded as “* * *”.
As to `FC(F)(F)c1ccc2c(c1)nc(Nc1c[nH]c3ccc(Cl)cc13)n2C1CC1` [Embodiment 57, N-(5-chloro-1H-indol-3-yl)-1-cyclopropyl-5-(trifluoromethyl)-1H-benzo[d]imidazol-2-amine], at human STING (hSTING), the hSTING inhibitory activity entry is given as “* * *”. Also, the IFN-β bioinhibitory activity result in assay [1] was “* *”.
In the case of `Cn1c(Nc2c[nH]c3ccc(Cl)nc23)nc2ccc(Oc3ccc(F)cc3)cc21` [Embodiment 58, N-(5-chloro-1H-pyrrolo[3,2-b]pyridin-3-yl)-6-(4-fluorophenoxy)-1-methyl-1H-benzo[d]imidazol-2-amine], at human STING (hSTING), the hSTING inhibitory activity result is recorded as “* *”. For the same compound, the pIC50 in assay [1] is 6.00 to 7.00.
On to `C[Si](C)(C)C#Cc1ccc2[nH]c(Nc3c[nH]c4ccc(Br)nc34)nc2c1` [Embodiment 59, N-(5-bromo-1H-pyrrolo[3,2-b]pyridin-3-yl)-5-[(trimethylsilyl)ethynyl]-1H-benzo[d]imidazol-2-amine], for which the hSTING inhibitory activity entry on human STING (hSTING) is recorded as “* * *”. For the same compound, in assay [1], the IFN-β bioinhibitory activity result is “* *”.
As to `Brc1ccc2[nH]cc(Nc3nc4cc(-c5ccccc5)ccc4[nH]3)c2n1` [Embodiment 60, N-(5-bromo-1H-pyrrolo[3,2-b]pyridin-3-yl)-5-phenyl-1H-benzo [d]imidazol-2-amine], the hSTING inhibitory activity entry on human STING (hSTING) is given as “* * *”. Also, the values for the pIC50 (on human STING (hSTING) (read-out: hSTING inhibitory activity); in assay [1]) were 5.00 to 6.00 and 6.00 to 7.00, respectively.
`CN(C)c1ccc(Oc2ccc3[nH]c(Nc4c[nH]c5ccc(Br)nc45)nc3c2)cc1` [Embodiment 64, N-(5-bromo-1H-pyrrolo[3,2-b]pyridin-3-yl)-5-[4-(dimethylamino)phenoxy]-1H-benzo[d]imidazol-2-amine]: at human STING (hSTING), the hSTING inhibitory activity result is on record as “* *”. The pIC50 in assay [1] is 6.00 to 7.00.
As to `Fc1cnc2[nH]cc(Nc3nc4cc(Oc5ccccc5)ccc4[nH]3)c2c1` [Embodiment 72, N-(5-fluoro-1H-pyrrolo[2,3-b]pyridin-3-yl)-5-phenoxy-1H-benzo [d]imidazol-2-amine formate], the hSTING inhibitory activity entry at human STING (hSTING) was “* *”. Further, the pIC50 in assay [1] was 6.00 to 7.00.
In the same order, the values of `Clc1cnc2[nH]cc(Nc3nc4cc(Oc5ccccc5)ccc4[nH]3)c2c1` [Embodiment 73, N-(5-Chloro-1H-pyrrolo[2,3-b]pyridin-3-yl)-5-phenoxy-1H-benzo[d]imidazol-2-amine formate] are “* * *” and 6.00 to 7.00.
For `COc1ccnc2c(Nc3nc4cc(Oc5ccccc5)ccc4[nH]3)c[nH]c12` [Embodiment 77, N-(7-Methoxy-1H-pyrrolo[3,2-b]pyridin-3-yl)-5-phenoxy-1H-benzo[d]imidazol-2-amine formate], the hSTING inhibitory activity entry at human STING (hSTING) is “* *”. In assay [1], the pIC50 is no more than 6.00.
Regarding `Fc1cc2nc(Nc3c[nH]c4ccc(Cl)nc34)[nH]c2cc1F` [Embodiment 78, N-(5-Chloro-1H-pyrrolo[3,2-b]pyridin-3-yl)-5,6-difluoro-1H-benzo[d]imidazol-2-amine], on human STING (hSTING), the hSTING inhibitory activity result was “* *”. Also, the pIC50 in assay [1] was no more than 6.00.
As to `Cc1cc2nc(Nc3c[nH]c4ccc(Br)nc34)[nH]c2cc1C` [Embodiment 79, N-(5-bromo-1H-pyrrolo[3,2-b]pyridin-3-yl)-5,6-dimethyl-1H-benzo[d]imidazol-2-amine], on human STING (hSTING), the hSTING inhibitory activity entry is reported as “* *”. Moreover, in assay [1], the pIC50 was 6.00 to 7.00.
For `Brc1ccc2[nH]cc(Nc3nc4cc(I)ccc4[nH]3)c2n1` [Embodiment 80, N-(5-bromo-1H-pyrrolo[3,2-b]pyridin-3-yl)-5-iodo-1H-benzo [d]imidazol-2-amine], on human STING (hSTING), the hSTING inhibitory activity result is “* * *”. Besides, in assay [1], the IFN-β bioinhibitory activity result was “* * *”.
As to `Fc1ccc2[nH]c(Nc3c[nH]c4ccc(Cl)nc34)nc2c1F` [Embodiment 82, N-(5-Chloro-1H-pyrrolo[3,2-b]pyridin-3-yl)-4,5-difluoro-1H-benzo[d]imidazol-2-amine], the hSTING inhibitory activity result on human STING (hSTING) was “* *”. The IFN-β bioinhibitory activity entry in assay [1] is reported as “* *”.
As for `Clc1cc(Cl)c2nc(Nc3c[nH]c4ccc(Cl)nc34)[nH]c2c1` [Embodiment 84, 4,6-dichloro-N-(5-chloro-1H-pyrrolo[3,2-b]pyridin-3-yl)-1H-benzo[d]imidazol-2-amine], at human STING (hSTING), the hSTING inhibitory activity entry is reported as “* *”. Besides, in assay [1], the pIC50 was no more than 6.00.
As to `Fc1cc(F)c2nc(Nc3c[nH]c4ccc(Cl)nc34)[nH]c2c1` [Embodiment 86, N-(5-Chloro-1H-pyrrolo[3,2-b]pyridin-3-yl)-4,6-difluoro-1H-benzo[d]imidazol-2-amine formate], on human STING (hSTING), the hSTING inhibitory activity result is “* *”. Further, in assay [1], the pIC50 was no more than 6.00.
Taken in the same sequence, the figures for `Cc1cc(C)c2nc(Nc3c[nH]c4ccc(Cl)nc34)[nH]c2c1` [Embodiment 87, N-(5-Chloro-1H-pyrrolo[3,2-b]pyridin-3-yl)-4,6-dimethyl-1H-benzo[d]imidazol-2-amine] were “* *” and 6.00 to 7.00.
Turning to `Clc1cc2nc(Nc3c[nH]c4ccc(Br)nc34)[nH]c2cc1Cl` [Embodiment 88, N-(5-bromo-1H-pyrrolo[3,2-b]pyridin-3-yl)-5,6-dichloro-1H-benzo[d]imidazol-2-amine], on human STING (hSTING), the hSTING inhibitory activity result was “* * *”. The pIC50 in assay [1] is 6.00 to 7.00.
As to `FC(F)(F)c1cccc2[nH]c(Nc3c[nH]c4ccc(Br)nc34)nc12` [Embodiment 89, N-(5-bromo-1H-pyrrolo[3,2-b]pyridin-3-yl)-4-(trifluoromethyl)-1H-benzo[d]imidazol-2-amine], the hSTING inhibitory activity result on human STING (hSTING) is listed as “* * *”. In addition, the pIC50 in assay [1] is 6.00 to 7.00.
Consider `CCCCn1c(Nc2c[nH]c3ccc(Br)nc23)nc2ccc(Oc3ccccc3)cc21` [Embodiment 91, N-(5-bromo-1H-pyrrolo[3,2-b]pyridin-3-yl)-1-butyl-6-phenoxy-1H-benzo[d]imidazol-2-amine], for which the hSTING inhibitory activity result on human STING (hSTING) is reported as “* * *”. Further, the pIC50 in assay [1] is 6.00 to 7.00.
Take `COCCn1c(Nc2c[nH]c3ccc(Br)nc23)nc2ccc(Oc3ccccc3)cc21` [Embodiment 93, N-(5-bromo-1H-pyrrolo[3,2-b]pyridin-3-yl)-1-(2-methoxyethyl)-6-phenoxy-1H-benzo[d]imidazol-2-amine]: the hSTING inhibitory activity result on human STING (hSTING) is on record as “* * *”. In addition, in assay [1], the pIC50 was 6.00 to 7.00.
As to `Clc1ccc2[nH]cc(Nc3nc4c(Cl)c(Cl)ccc4[nH]3)c2n1` [Embodiment 94, 4,5-dichloro-N-(5-chloro-1H-pyrrolo[3,2-b]pyridin-3-yl)-1H-benzo[d]imidazol-2-amine], the hSTING inhibitory activity entry on human STING (hSTING) is recorded as “* * *”. Also, the pIC50 in assay [1] is 6.00 to 7.00.

The values are drawn from patent publication US20240279205A1, “NOVEL BENZIMIDAZOLE DERIVATIVE” (Carna Biosciences, Inc., priority 2020, published 2024).
